Among the data in patent US12415794B2 (Edgewise Therapeutics, Inc., priority 2018, dated 2025) are IC50 values, retold here.

The target in experiment [1] is T1, cardiac myofibrils (myosin ATPase).
T1 construct: frozen myofibril pellets obtained from cardiac tissue; from tissue
As to the kind of experiment: Cardiac Myofibril ATPase Assay (counter screen). The class given is biochemical. The note with it: myofibrils 1.0 mg/mL, KCl omitted. An outline of the steps:
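Myosin ATPase rate followed via NADH disappearance at 340 nm, coupled through pyruvate kinase and lactate dehydrogenase, using cardiac myofibril pellets (final 1.0 mg/mL) without KCl. IC50 values reflect rate reduction compared with vehicle-treated wells.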

The target of experiment [2] is skeletal myofibrils (myosin ATPase). Put plainly: Skeletal Myofibril ATPase Assay. It counts as biochemical. In short, it runs like this: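 Rates of NADH loss (A340, kinetic read over 45 min) report ADP generation by myofibrillar myosin, coupled through pyruvate kinase and lactate dehydrogenase; pCa buffer at pH 7.0. IC50 fitted by 4-parameter logistic after normalizing to 1% DMSO controls; cardiac myofibrils served for selectivity.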

T1 sequence (P12883 whole entry): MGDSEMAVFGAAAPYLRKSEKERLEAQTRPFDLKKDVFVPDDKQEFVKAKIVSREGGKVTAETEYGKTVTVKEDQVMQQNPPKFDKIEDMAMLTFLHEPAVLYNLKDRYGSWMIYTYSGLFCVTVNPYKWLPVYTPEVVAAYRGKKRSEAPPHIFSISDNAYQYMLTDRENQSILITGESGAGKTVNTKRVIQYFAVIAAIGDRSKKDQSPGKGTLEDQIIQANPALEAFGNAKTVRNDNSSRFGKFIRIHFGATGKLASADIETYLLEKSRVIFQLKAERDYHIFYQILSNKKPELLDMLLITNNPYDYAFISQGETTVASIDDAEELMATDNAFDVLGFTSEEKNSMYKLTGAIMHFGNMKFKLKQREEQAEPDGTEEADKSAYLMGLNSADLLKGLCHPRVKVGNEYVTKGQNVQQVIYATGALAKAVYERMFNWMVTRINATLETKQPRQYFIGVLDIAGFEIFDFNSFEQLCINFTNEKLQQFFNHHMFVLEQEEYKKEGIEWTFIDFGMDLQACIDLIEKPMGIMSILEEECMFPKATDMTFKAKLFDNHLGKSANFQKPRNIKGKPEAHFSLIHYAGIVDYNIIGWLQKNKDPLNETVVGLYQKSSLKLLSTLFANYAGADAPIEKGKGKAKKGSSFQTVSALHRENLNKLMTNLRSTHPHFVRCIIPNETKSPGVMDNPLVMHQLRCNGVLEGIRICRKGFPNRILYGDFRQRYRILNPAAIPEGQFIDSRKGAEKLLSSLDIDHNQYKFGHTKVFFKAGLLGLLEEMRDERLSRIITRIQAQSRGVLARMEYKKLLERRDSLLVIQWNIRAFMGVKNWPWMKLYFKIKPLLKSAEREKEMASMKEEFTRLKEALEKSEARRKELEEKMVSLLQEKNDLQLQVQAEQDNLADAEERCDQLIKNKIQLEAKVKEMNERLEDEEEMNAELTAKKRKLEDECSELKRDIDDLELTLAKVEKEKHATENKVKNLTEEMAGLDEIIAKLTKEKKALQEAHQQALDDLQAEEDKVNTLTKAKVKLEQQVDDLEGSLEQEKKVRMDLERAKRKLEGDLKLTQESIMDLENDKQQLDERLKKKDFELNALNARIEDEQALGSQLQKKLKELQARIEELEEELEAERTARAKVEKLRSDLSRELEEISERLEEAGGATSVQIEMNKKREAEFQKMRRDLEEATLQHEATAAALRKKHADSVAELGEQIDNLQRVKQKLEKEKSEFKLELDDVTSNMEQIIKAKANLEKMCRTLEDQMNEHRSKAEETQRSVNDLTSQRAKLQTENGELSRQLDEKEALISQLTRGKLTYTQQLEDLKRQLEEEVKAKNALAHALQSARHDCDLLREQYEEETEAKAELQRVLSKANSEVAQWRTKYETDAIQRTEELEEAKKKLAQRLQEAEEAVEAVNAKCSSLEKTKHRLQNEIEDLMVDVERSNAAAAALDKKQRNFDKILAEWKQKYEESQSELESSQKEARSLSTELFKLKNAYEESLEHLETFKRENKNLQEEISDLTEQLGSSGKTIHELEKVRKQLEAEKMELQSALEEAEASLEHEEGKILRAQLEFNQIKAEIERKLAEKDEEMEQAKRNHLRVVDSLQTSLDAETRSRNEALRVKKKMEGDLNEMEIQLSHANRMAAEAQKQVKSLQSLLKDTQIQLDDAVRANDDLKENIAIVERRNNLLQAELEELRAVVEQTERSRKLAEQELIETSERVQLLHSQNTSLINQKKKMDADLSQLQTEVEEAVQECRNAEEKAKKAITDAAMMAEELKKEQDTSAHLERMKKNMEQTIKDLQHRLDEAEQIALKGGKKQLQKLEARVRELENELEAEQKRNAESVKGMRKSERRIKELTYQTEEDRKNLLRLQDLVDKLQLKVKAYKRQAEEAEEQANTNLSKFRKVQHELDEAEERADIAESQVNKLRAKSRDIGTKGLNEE
T1 sequence (P08590 whole entry partner): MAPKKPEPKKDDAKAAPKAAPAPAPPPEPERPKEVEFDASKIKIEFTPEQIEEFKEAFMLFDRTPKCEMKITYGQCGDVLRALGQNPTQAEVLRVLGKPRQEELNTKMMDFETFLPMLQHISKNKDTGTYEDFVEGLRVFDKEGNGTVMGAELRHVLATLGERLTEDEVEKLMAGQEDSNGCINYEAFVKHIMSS
T1 sequence (P10916 whole entry partner): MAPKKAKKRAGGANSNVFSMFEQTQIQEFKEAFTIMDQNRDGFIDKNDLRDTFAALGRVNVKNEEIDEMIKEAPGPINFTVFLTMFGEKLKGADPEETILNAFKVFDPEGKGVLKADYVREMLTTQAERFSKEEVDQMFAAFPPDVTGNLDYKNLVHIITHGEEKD

As usually defined, the IC50 is the midpoint of a concentration-inhibition curve. Read a low IC50 as greater potency in that assay. Consider `CC[C@H](C)NC(=O)Cn1nc(-c2ccc(C)cc2)ccc1=O` [IIIc-2, (S)-N-(sec-butyl)-2-(6-oxo-3-(p-tolyl)pyridazin-1(6H)-yl)acetamide], for which the IC50 in experiment [1] (Table 5C) was more than 100 µM; in experiment [2] (Table 4C) it was less than 10 µM.

Consider `O=C(Cn1nc(-c2ccc(Cl)cc2)ccc1=O)Nc1ccccc1Cl` [IIIc-38, N-(2-chlorophenyl)-2-(3-(4-chlorophenyl)-6-oxopyridazin-1(6H)-yl)acetamide], for which the IC50 in experiment [1] (Table 5C) is more than 100 µM; in experiment [2] (Table 4C), less than 10 µM.

Take `Cc1ccc(-c2ccc(=O)n(CC(=O)NC3CCCCCC3)n2)cc1` [IIIc-4, N-cycloheptyl-2-(6-oxo-3-(p-tolyl)pyridazin-1(6H)-yl)acetamide]: the half-inhibitory concentration (IC50) in experiment [1] (Table 5C) is more than 100 µM; in experiment [2] (Table 4C) it was 10 to 100 µM.

`COc1ccc(-c2ccc(=O)n(CC(=O)NCc3ccc(OC)c(OC)c3)n2)cc1` [IIIb-49, N-(3,4-dimethoxybenzyl)-2-(3-(4-methoxyphenyl)-6-oxopyridazin-1(6H)-yl)acetamide]: the IC50 in experiment [1] (Table 5C) and in experiment [2] (Table 4C) was more than 100 µM each time.

For the compound `COc1ccc(-c2ccc(=O)n(CC(=O)NCc3ccc(C)cc3)n2)cc1` [IIIa-15, 2-(3-(4-methoxyphenyl)-6-oxopyridazin-1(6H)-yl)-N-(4-methylbenzyl) acetamide], the IC50 in experiment [1] (Table 5C) is more than 100 µM; in experiment [2] (Table 4C), less than 10 µM.

As for `O=C(Cn1nc(-c2ccc(OC(F)F)cc2)ccc1=O)NC1CCC1` [II-9, N-cyclobutyl-2-(3-(4-(difluoromethoxy)phenyl)-6-oxopyridazin-1(6H)-yl)acetamide], the half-maximal inhibitory concentration (IC50) in experiment [1] (Table 5B) was more than 100 µM; in experiment [2] (Table 4B), less than 10 µM.

As for `Cc1ccc(-c2ccc(=O)n(CC(=O)NCCc3ccccc3)n2)cc1` [IIIc-3, 2-(6-oxo-3-(p-tolyl)pyridazin-1(6H)-yl)-N-phenethylacetamide], the figures for the IC50 in experiment [1] (Table 5C) and in experiment [2] (Table 4C) were more than 100 µM and less than 10 µM, respectively.

Regarding `CCNC(=O)Cn1nc(-c2ccc(N3CC(C)(C)C3)nc2)ccc1=O` [Compound I-18, 2-(3-(6-(3,3-dimethylazetidin-1-yl)pyridin-3-yl)-6-oxopyridazin-1(6H)-yl)-N-ethylacetamide], the IC50 was more than 100 µM in experiment [1] (Table 5A) and 10 to 100 µM in experiment [2] (Table 4A).

On to `COc1ccc(-c2ccc(=O)n(CC(=O)NCC3CCOCC3)n2)cc1` [IIIa-29, 2-(3-(4-methoxyphenyl)-6-oxopyridazin-1(6H)-yl)-N-((tetrahydro-2H-pyran-4-yl)methyl) acetamide], for which the IC50 in experiment [1] (Table 5C) and in experiment [2] (Table 4C) was more than 100 µM each time.

For `CCNC(=O)Cn1nc(-c2ccc(Oc3ccc(F)cc3)nc2)ccc1=O` [Compound I-21, N-ethyl-2-(3-(6-(4-fluorophenoxy)pyridin-3-yl)-6-oxopyridazin-1(6H)-yl)acetamide], the half-maximal inhibitory concentration (IC50) is more than 100 µM in experiment [1] (Table 5A) and 10 to 100 µM in experiment [2] (Table 4A).

With `CCNC(=O)Cn1nc(-c2ccc(OCCN(C)C)nc2)ccc1=O` [Compound I-26, 2-(3-(6-(2-(dimethylamino)ethoxy)pyridin-3-yl)-6-oxopyridazin-1(6H)-yl)-N-ethylacetamide], the IC50 in experiment [1] (Table 5A) and in experiment [2] (Table 4A) was more than 100 µM throughout.

With `CC(C)c1cccc(NC(=O)Cn2nc(-c3ccc4c(c3)OCCCO4)ccc2=O)c1` [IIIb-5, 2-(3-(3,4-dihydro-2H-benzo[b][1,4]dioxepin-7-yl)-6-oxopyridazin-1(6H)-yl)-N-(3-isopropylphenyl) acetamide], the IC50 in experiment [1] (Table 5C) is 10 to 100 µM; in experiment [2] (Table 4C), less than 10 µM.

Consider `COc1ccc(-c2ccc(=O)n(CC(=O)Nc3ccc4c(c3)OCCO4)n2)c(F)c1` [IIIb-15, N-(2,3-dihydrobenzo[b][1,4]dioxin-6-yl)-2-(3-(2-fluoro-4-methoxyphenyl)-6-oxopyridazin-1(6H)-yl)acetamide], for which the IC50 in experiment [1] (Table 5C) was more than 100 µM; in experiment [2] (Table 4C) it was less than 10 µM.

On to `COc1ccc(-c2ccc(=O)n(CC(=O)NCc3ccccc3)n2)c(F)c1` [IIIb-54, N-benzyl-2-(3-(2-fluoro-4-methoxyphenyl)-6-oxopyridazin-1(6H)-yl)acetamide], for which the IC50 in experiment [1] (Table 5C) and in experiment [2] (Table 4C) was more than 100 µM each time.

As for `O=C(Cn1nc(-c2ccccc2)ccc1=O)Nc1ccc2[nH]ccc2c1` [IIIc-49, N-(1H-indol-5-yl)-2-(6-oxo-3-phenylpyridazin-1(6H)-yl)acetamide], the 50% inhibitory concentration (IC50) in experiment [1] (Table 5C) was more than 100 µM; in experiment [2] (Table 4C), less than 10 µM.

In the case of `CCNC(=O)Cn1nc(-c2ccc(OC(F)F)cc2)cc(C)c1=O` [II-21, 2-(3-(4-(difluoromethoxy)phenyl)-5-methyl-6-oxopyridazin-1(6H)-yl)-N-ethylacetamide], the IC50 in experiment [1] (Table 5B) and in experiment [2] (Table 4B) was more than 100 µM in each case.

Consider `CCNC(=O)Cn1nc(-c2ccc(N(C)C3CCC3)nc2)ccc1=O` [Compound I-61, 2-(3-(6-(cyclobutyl(methyl)amino)pyridin-3-yl)-6-oxopyridazin-1(6H)-yl)-N-ethylacetamide], for which the IC50 in experiment [1] (Table 5A) is 10 to 100 µM; in experiment [2] (Table 4A), less than 10 µM.

On to `CCNC(=O)Cn1nc(-c2ccc(OCC3(C)COC3)nc2)ccc1=O` [Compound I-24, N-ethyl-2-(3-(6-((3-methyloxetan-3-yl)methoxy)pyridin-3-yl)-6-oxopyridazin-1(6H)-yl)acetamide], for which the IC50 in experiment [1] (Table 5A) is more than 100 µM; in experiment [2] (Table 4A), 10 to 100 µM.

In the case of `O=C(Cn1nc(-c2ccc(OC(F)F)cc2)ccc1=O)NCC(F)(F)F` [II-11, 2-(3-(4-(difluoromethoxy)phenyl)-6-oxopyridazin-1(6H)-yl)-N-(2,2,2-trifluoroethyl) acetamide], the IC50 in experiment [1] (Table 5B) is more than 100 µM; in experiment [2] (Table 4B), 10 to 100 µM.

As to `COc1ccc(-c2ccc(=O)n(CC(=O)Nc3ccc(Cl)cc3Cl)n2)cc1` [IIIb-11, N-(2,4-dichlorophenyl)-2-(3-(4-methoxyphenyl)-6-oxopyridazin-1(6H)-yl)acetamide], the figures for the IC50 in experiment [1] (Table 5C) and in experiment [2] (Table 4C) were more than 100 µM and less than 10 µM, respectively.

In the case of `COc1ccc(-c2ccc(=O)n(CC(=O)N(C)c3ccccc3)n2)cc1` [IIIc-7, 2-(3-(4-methoxyphenyl)-6-oxopyridazin-1(6H)-yl)-N-methyl-N-phenylacetamide], the figures for the half-maximal inhibitory concentration (IC50) in experiment [1] (Table 5C) and in experiment [2] (Table 4C) were more than 100 µM and 10 to 100 µM, respectively.

In the case of `COc1ccc(-c2ccc(=O)n(CC(=O)NCc3ccccc3Cl)n2)cn1` [Compound I-5, N-(2-chlorobenzyl)-2-(3-(6-methoxypyridin-3-yl)-6-oxopyridazin-1(6H)-yl)acetamide], the IC50 in experiment [1] (Table 5A) was more than 100 µM; in experiment [2] (Table 4A) it was less than 10 µM.

Turning to `COc1ccc(-c2ccc(=O)n(CC(=O)NCc3ccccc3Cl)n2)cc1F` [IIIa-24, N-(2-chlorobenzyl)-2-(3-(3-fluoro-4-methoxyphenyl)-6-oxopyridazin-1(6H)-yl)acetamide], the IC50 in experiment [1] (Table 5C) was more than 100 µM; in experiment [2] (Table 4C), 10 to 100 µM.

With `COc1ccc(-c2ccc(=O)n(CC(=O)NC3CCCCC3)n2)cc1` [IIIb-41, N-cyclohexyl-2-(3-(4-methoxyphenyl)-6-oxopyridazin-1(6H)-yl)acetamide], the IC50 in experiment [1] (Table 5C) and in experiment [2] (Table 4C) was more than 100 µM in each case.

Take `CC(C)NC(=O)Cn1nc(-c2ccc(OC(F)(F)F)cc2)ccc1=O` [II-4]: the IC50 in experiment [1] (Table 5B) is more than 100 µM; in experiment [2] (Table 4B), less than 10 µM.

Take `CCNC(=O)Cn1nc(-c2ccc(OCC3COC3)nc2)ccc1=O` [Compound I-22, N-ethyl-2-(3-(6-(oxetan-3-ylmethoxy)pyridin-3-yl)-6-oxopyridazin-1(6H)-yl)acetamide]: the IC50 in experiment [1] (Table 5A) is more than 100 µM; in experiment [2] (Table 4A), 10 to 100 µM.

For `O=C(Cn1nc(-c2ccccc2)ccc1=O)NC1(c2ccccc2)CCC1` [IIIc-51, 2-(6-oxo-3-phenylpyridazin-1(6H)-yl)-N-(1-phenylcyclobutyl)acetamide], the 50% inhibitory concentration (IC50) in experiment [1] (Table 5C) is more than 100 µM; in experiment [2] (Table 4C) it was less than 10 µM.

Consider `COc1ccc(-c2ccc(=O)n(CC(=O)NCc3ccc(Cl)cc3Cl)n2)cc1` [IIIa-12, N-(2,4-dichlorobenzyl)-2-(3-(4-methoxyphenyl)-6-oxopyridazin-1(6H)-yl)acetamide], for which the IC50 in experiment [1] (Table 5C) was more than 100 µM; in experiment [2] (Table 4C), less than 10 µM.

Regarding `O=C(Cn1nc(-c2ccccc2)ccc1=O)Nc1ccccc1C(F)(F)F` [IIIc-52, 2-(6-oxo-3-phenylpyridazin-1(6H)-yl)-N-(2-(trifluoromethyl)phenyl)acetamide], the IC50 in experiment [1] (Table 5C) was more than 100 µM; in experiment [2] (Table 4C), 10 to 100 µM.

On to `CCNC(=O)Cn1nc(-c2ccc(OC)cc2)ccc1=O` [IIIa-3, N-ethyl-2-(3-(4-methoxyphenyl)-6-oxopyridazin-1(6H)-yl)acetamide], for which the IC50 is more than 100 µM in experiment [1] (Table 5C) and less than 10 µM in experiment [2] (Table 4C).

For the compound `CCNC(=O)Cn1nc(-c2ccc(N3CCC34COC4)nc2)ccc1=O` [Compound I-19, 2-(3-(6-(6-oxa-1-azaspiro[3.3]heptan-1-yl)pyridin-3-yl)-6-oxopyridazin-1(6H)-yl)-N-ethylacetamide], the IC50 in experiment [1] (Table 5A) was more than 100 µM; in experiment [2] (Table 4A), 10 to 100 µM.

Turning to `CCc1cccc(NC(=O)Cn2nc(-c3ccc(C)cc3)ccc2=O)c1` [IIIc-1, N-(3-ethylphenyl)-2-(6-oxo-3-(p-tolyl)pyridazin-1(6H)-yl)acetamide], the concentration for half-maximal inhibition (IC50) in experiment [1] (Table 5C) is more than 100 µM; in experiment [2] (Table 4C) it was less than 10 µM.

For `COc1ccc(-c2ccc(=O)n(CC(=O)NC(C)CCc3ccccc3)n2)c(F)c1` (stereo not shown) [IIIb-36, 2-(3-(2-fluoro-4-methoxyphenyl)-6-oxopyridazin-1(6H)-yl)-N-(4-phenylbutan-2-yl)acetamide], the figures for the 50% inhibitory concentration (IC50) in experiment [1] (Table 5C) and in experiment [2] (Table 4C) were more than 100 µM and 10 to 100 µM, respectively.

As for `COc1ccc(-c2ccc(=O)n(CC(=O)NC(C)(C)c3ccccc3)n2)cc1` [IIIa-9, 2-(3-(4-methoxyphenyl)-6-oxopyridazin-1(6H)-yl)-N-(2-phenylpropan-2-yl)acetamide], the results for the IC50 in experiment [1] (Table 5C) and in experiment [2] (Table 4C) were more than 100 µM and less than 10 µM, respectively.

Turning to `CCNC(=O)Cn1nc(-c2ccc(OC(F)F)cc2)ccc1=O` [II-10, 2-(3-(4-(difluoromethoxy)phenyl)-6-oxopyridazin-1(6H)-yl)-N-ethylacetamide], the IC50 in experiment [1] (Table 5B) is more than 100 µM; in experiment [2] (Table 4B) it was less than 10 µM.
